Converted amounts (≈) assume the structure as drawn.
Assays:
CCRF-CEM = experiment: Antiproliferative activity against human CEM cells after 72 hrs by Coulter counting analysis; type: functional, cell-based
FM3A = experiment: Antiproliferative activity against mouse FM3A cells after 48 hrs by Coulter counting analysis; type: functional, cell-based
L1210 = experiment: Antiproliferative activity against mouse L1210 cells after 48 hrs by Coulter counting analysis; type: functional, cell-based; details: L1210, 48 h
HeLa = experiment: Antiproliferative activity against human HeLa cells after 96 hrs by Coulter counting analysis; type: functional, cell-based
[1] = target: Bone morphogenetic protein receptor type-1B (Homo sapiens) (UniProt O00238); experiment: Inhibition of BMPR1b assessed as activity remaining at 10 uM by competitive binding inhibition assay
Sequence of Bone morphogenetic protein receptor type-1B (Homo sapiens) (O00238 whole entry): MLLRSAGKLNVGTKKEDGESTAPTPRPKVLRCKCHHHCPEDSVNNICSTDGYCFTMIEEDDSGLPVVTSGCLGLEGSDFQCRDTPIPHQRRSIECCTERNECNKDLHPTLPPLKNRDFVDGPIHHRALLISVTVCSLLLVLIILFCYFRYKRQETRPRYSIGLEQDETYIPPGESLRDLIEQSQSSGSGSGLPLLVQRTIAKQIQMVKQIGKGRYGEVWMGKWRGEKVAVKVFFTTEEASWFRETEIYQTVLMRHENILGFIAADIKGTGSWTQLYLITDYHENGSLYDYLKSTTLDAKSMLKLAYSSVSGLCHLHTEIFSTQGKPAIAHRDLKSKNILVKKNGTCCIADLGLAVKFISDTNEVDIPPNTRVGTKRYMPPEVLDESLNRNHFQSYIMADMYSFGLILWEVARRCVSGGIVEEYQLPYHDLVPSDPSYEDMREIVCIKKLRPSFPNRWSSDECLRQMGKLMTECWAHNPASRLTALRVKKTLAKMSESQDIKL

| Structure (SMILES) | IC50 (CCRF-CEM) [µg/mL] | IC50 (L1210) [µg/mL] | IC50 (HeLa) [µg/mL] | Activity [1] [%] | IC50 (FM3A) [µg/mL] |
| --- | --- | --- | --- | --- | --- |
| CNC(=O)NC[C@H]1O[C@@H](n2cnc3c(NC(=O)Nc4ccccc4)ncnc32)[C@H](OC(C)=O)[C@@H]1OC(C)=O | 107 (≈ 203 µM) | 97 (≈ 184 µM) | > 200 | 95 | 150 (≈ 285 µM) |
| CCCC(=O)O[C@@H]1[C@H](OC(=O)CCC)[C@@H](CNC(=O)NC)O[C@H]1n1cnc2c(NC(=O)Nc3ccccc3)ncnc21 | 29 (≈ 49.8 µM) | 20 (≈ 34.3 µM) | 58 (≈ 99.6 µM) | – | 18 (≈ 30.9 µM) |
| CC[Si](CC)(CC)O[C@@H]1[C@H](O[Si](CC)(CC)CC)[C@@H](CNC(=O)NC)O[C@H]1n1cnc2c(NC(=O)Nc3ccccc3)ncnc21 | 4.2 (≈ 6.26 µM) | 3.8 (≈ 5.66 µM) | 3.7 (≈ 5.51 µM) | 100 | 3 (≈ 4.47 µM) |
| CCCCCCCCCC(=O)O[C@@H]1[C@H](OC(=O)CCCCCCCCC)[C@@H](CNC(=O)NC)O[C@H]1n1cnc2c(NC(=O)Nc3ccccc3)ncnc21 | > 100 | > 100 | > 100 | – | 140 (≈ 186 µM) |
| CNC(=O)NC[C@H]1O[C@@H](n2cnc3c(NC(=O)Nc4ccccc4)ncnc32)[C@H](O[Si](c2ccccc2)(c2ccccc2)C(C)(C)C)[C@@H]1O[Si](c1ccccc1)(c1ccccc1)C(C)(C)C | ≥ 200 | > 200 | 104 (≈ 113 µM) | 100 | > 200 |
| CNC(=O)NC[C@H]1O[C@@H](n2cnc3c(N)ncnc32)[C@H](OC(C)=O)[C@@H]1OC(C)=O | > 200 | 112 (≈ 275 µM) | > 200 | – | > 200 |

Now from value to compound, other results behind:

| IC50 (CCRF-CEM) [µg/mL] | IC50 (L1210) [µg/mL] | IC50 (HeLa) [µg/mL] | Activity [1] [%] | Structure (SMILES) | IC50 (FM3A) [µg/mL] |
| --- | --- | --- | --- | --- | --- |
| 88 (≈ 190 µM) | 87 (≈ 188 µM) | 99 (≈ 214 µM) | – | CNC(=O)NC[C@H]1O[C@@H](n2cnc3c(N)ncnc32)[C@H](OC(=O)C(C)C)[C@@H]1OC(=O)C(C)C | 107 (≈ 231 µM) |
| 20 (≈ 32.8 µM) | 9.7 (≈ 15.9 µM) | 17 (≈ 27.8 µM) | – | CNC(=O)NC[C@H]1O[C@@H](n2cnc3c(NC(=O)Nc4ccccc4)ncnc32)[C@H](OC(=O)C(C)(C)C)[C@@H]1OC(=O)C(C)(C)C | 15 (≈ 24.6 µM) |
| 142 (≈ 188 µM) | > 200 | ≥ 200 | 100 | CNC(=O)NC[C@H]1O[C@@H](n2cnc3c(NC(=O)Nc4ccccc4)ncnc32)[C@H](O[Si](C(C)C)(C(C)C)C(C)C)[C@@H]1O[Si](C(C)C)(C(C)C)C(C)C | > 200 |
| 10 (≈ 15.7 µM) | 9.5 (≈ 14.9 µM) | 15 (≈ 23.5 µM) | – | CCCCCC(=O)O[C@@H]1[C@H](OC(=O)CCCCC)[C@@H](CNC(=O)NC)O[C@H]1n1cnc2c(NC(=O)Nc3ccccc3)ncnc21 | 20 (≈ 31.3 µM) |
| 28 (≈ 48.1 µM) | 29 (≈ 49.8 µM) | 73 (≈ 125 µM) | 100 | CNC(=O)NC[C@H]1O[C@@H](n2cnc3c(NC(=O)Nc4ccccc4)ncnc32)[C@H](OC(=O)C(C)C)[C@@H]1OC(=O)C(C)C | 44 (≈ 75.5 µM) |
| > 200 | 154 (≈ 237 µM) | > 200 | 100 | CNC(=O)NC[C@H]1O[C@@H](n2cnc3c(NC(=O)Nc4ccccc4)ncnc32)[C@H](OC(=O)c2ccccc2)[C@@H]1OC(=O)c1ccccc1 | 61 (≈ 93.8 µM) |
| 19 (≈ 35.7 µM) | 16 (≈ 30.1 µM) | 40 (≈ 75.3 µM) | – | CNC(=O)NC[C@H]1O[C@@H](n2cnc3c(N)ncnc32)[C@H](OC(=O)c2ccccc2)[C@@H]1OC(=O)c1ccccc1 | 36 (≈ 67.7 µM) |
| 12 (≈ 17.3 µM) | 11 (≈ 15.8 µM) | 16 (≈ 23 µM) | – | CCCCCCCC(=O)O[C@@H]1[C@H](OC(=O)CCCCCCC)[C@@H](CNC(=O)NC)O[C@H]1n1cnc2c(NC(=O)Nc3ccccc3)ncnc21 | 32 (≈ 46.1 µM) |
| > 100 | > 100 | > 100 | – | CCCCCCCCCCCCCCCC(=O)O[C@@H]1[C@H](OC(=O)CCCCCCCCCCCCCCC)[C@@H](CNC(=O)NC)O[C@H]1n1cnc2c(NC(=O)Nc3ccccc3)ncnc21 | > 200 |

— ChEMBL document CHEMBL2086355, “Synthesis and SAR of 2',3'-bis-O-substituted N(6), 5'-bis-ureidoadenosine derivatives: implications for prodrug delivery and mechanism of action” (Bioorg Med Chem Lett, 2012)
